The values that follow come from patent US20260027116A1, “Methods of Treating Chronic Graft-Versus-Host Disease Following Allogeneic Hematopoietic Stem Cell Transplantation” (Kadmon Corporation, LLC, priority 2022, published 2026).

The data set has as its target T1, UGT1A1 (Homo sapiens, UniProt P22309).
T1 sequence (P22309 26-533): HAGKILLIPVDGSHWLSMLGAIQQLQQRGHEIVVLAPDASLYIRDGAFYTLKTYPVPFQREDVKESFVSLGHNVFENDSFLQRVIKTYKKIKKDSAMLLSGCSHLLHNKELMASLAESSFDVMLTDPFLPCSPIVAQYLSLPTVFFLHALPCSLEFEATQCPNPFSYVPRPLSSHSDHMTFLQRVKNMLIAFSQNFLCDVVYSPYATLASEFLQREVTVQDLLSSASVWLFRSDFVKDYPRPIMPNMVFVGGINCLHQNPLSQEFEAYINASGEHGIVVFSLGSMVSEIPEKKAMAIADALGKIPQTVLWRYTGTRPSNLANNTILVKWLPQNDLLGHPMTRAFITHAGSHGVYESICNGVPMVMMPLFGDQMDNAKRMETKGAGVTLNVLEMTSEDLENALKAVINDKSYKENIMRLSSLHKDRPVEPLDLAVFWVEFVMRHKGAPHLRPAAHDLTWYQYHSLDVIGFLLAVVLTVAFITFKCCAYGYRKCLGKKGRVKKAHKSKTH
Put plainly: enzyme inhibition in vitro. The data set is classed as in vitro ADME.

Structures are written as SMILES.

`CC(C)NC(=O)COc1cccc(-c2nc(Nc3ccc4[nH]ncc4c3)c3ccccc3n2)c1` [Belumosudil, 2-{3-[4-(1H-indazol-5-ylamino)-2-quinazolinyl]phenoxy}-N-(propan-2-yl) acetamide]: the “inhibition of UGT1A1” value is “inhibitor”.
